Measurements as given in patent US8933233B2, “1,3,4-oxadiazole and 1,3,4-thiadiazole β-lactamase inhibitors” (priority 2012, dated 2015).
Structures can show the parent of a compound that is named as a salt.

What was measured:
[1] = tested on: bacterial strains that express the class D cephalosporinase OXA-15; experiment: Synergy MIC / standard BLI potentiation MIC assay, strains expressing OXA-15; type: cell-based, E. coli; details: in presence of a β-lactam; comparator Avibactam (CCC)
In short: (§1)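 Broth microdilution in CAMHB per CLSI M07-A9, ~10^5 CFU/mL inoculum, 18–20 h at 37 °C with aeration; engineered E. coli kept with 25 μg/mL tetracycline. β-lactam 2-fold from 128 to 0.13 μg/mL with BLI fixed at 4 μg/mL, or BLI serially diluted with β-lactam fixed; MIC is lowest concentration without visible turbidity.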

[2] = tested on: bacterial strains that express KPC β-lactamases; experiment: Synergy MIC / standard BLI potentiation MIC assay, strains expressing KPC β-lactamases; type: cell-based, isogenic E. coli and clinical isolates; details: more active for at least one KPC strain and/or better spectrum; comparator Avibactam
In short: as §1

| Compound | activity against bacterial strains that express OXA-15, compared with Avibactam [1] | activity and/or spectrum of activity against bacterial strains that express KPC β-lactamases, compared with Avibactam [2] |
| --- | --- | --- |
| N=C(N)N1CC(Cc2nnc([C@@H]3CC[C@@H]4CN3C(=O)N4OS(=O)(=O)O)o2)C1 [Compound 741, (2S,5R)-2-(5-((1-carbamimidoylazetidin-3-yl)methyl)-1,3,4-oxadiazol-2-yl)-7-oxo-1,6-diazabicyclo[3.2.1]octan-6-yl hydrogen sulfate] | more active than Avibactam | more active than Avibactam |
| NCc1nnc([C@@H]2CC[C@@H]3CN2C(=O)N3OS(=O)(=O)O)o1 [Compound 702, (2S,5R)-2-(5-(aminomethyl)-1,3,4-oxadiazol-2-yl)-7-oxo-1,6-diazabicyclo[3.2.1]octan-6-yl hydrogen sulfate] | more active than Avibactam | more active than Avibactam |
| O=C1N2C[C@@H](CC[C@H]2c2nnc(CC3CCNC3)o2)N1OS(=O)(=O)O (stereo partly drawn) [Compound 764, (2S,5R)-7-oxo-2-(5-(pyrrolidin-3-ylmethyl)-1,3,4-oxadiazol-2-yl)-1,6-diazabicyclo[3.2.1]octan-6-yl hydrogen sulfate] | more active than Avibactam | more active than Avibactam |
| O=C1N2C[C@@H](CC[C@H]2c2nnc(CN3CCNCC3)o2)N1OS(=O)(=O)O [Compound 777, (2S,5R)-7-oxo-2-(5-(piperazin-1-ylmethyl)-1,3,4-oxadiazol-2-yl)-1,6-diazabicyclo[3.2.1]octan-6-yl hydrogen sulfate] | more active than Avibactam | more active than Avibactam |
| N[C@H]1C[C@@H](NCc2nnc([C@@H]3CC[C@@H]4CN3C(=O)N4OS(=O)(=O)O)o2)C1 [Compound 756, (2S,5R)-2-(5-((((1s,3R)-3-aminocyclobutyl)amino)methyl)-1,3,4-oxadiazol-2-yl)-7-oxo-1,6-diazabicyclo[3.2.1]octan-6-yl hydrogen sulfate] | more active than Avibactam | more active than Avibactam |
| N=C(N)N1CC(NCc2nnc([C@@H]3CC[C@@H]4CN3C(=O)N4OS(=O)(=O)O)o2)C1 [Compound 746, (2S,5R)-2-(5-(((1-carbamimidoylazetidin-3-yl)amino)methyl)-1,3,4-oxadiazol-2-yl)-7-oxo-1,6-diazabicyclo[3.2.1]octan-6-yl hydrogen sulfate] | more active than Avibactam | more active than Avibactam |
| N=C(N)NCc1nnc([C@@H]2CC[C@@H]3CN2C(=O)N3OS(=O)(=O)O)s1 [Compound 721, (2S,5R)-2-(5-(guanidinomethyl)-1,3,4-thiadiazol-2-yl)-7-oxo-1,6-diazabicyclo[3.2.1]octan-6-yl hydrogen sulfate] | more active than Avibactam | more active than Avibactam |
| N=C(N)NCCc1nnc([C@@H]2CC[C@@H]3CN2C(=O)N3OS(=O)(=O)O)o1 [Compound 705, (2S,5R)-2-(5-(2-guanidinoethyl)-1,3,4-oxadiazol-2-yl)-7-oxo-1,6-diazabicyclo[3.2.1]octan-6-yl hydrogen sulfate] | more active than Avibactam | more active than Avibactam |
| N=C(N)NC[C@@H](O)c1nnc([C@@H]2CC[C@@H]3CN2C(=O)N3OS(=O)(=O)O)o1 [Compound 731, (2S,5R)-2-(5-((R)-2-guanidino-1-hydroxyethyl)-1,3,4-oxadiazol-2-yl)-7-oxo-1,6-diazabicyclo[3.2.1]octan-6-yl hydrogen sulfate] | more active than Avibactam | more active than Avibactam |
| NCCCc1nnc([C@@H]2CC[C@@H]3CN2C(=O)N3OS(=O)(=O)O)o1 [Compound 720, (2S,5R)-2-(5-(3-aminopropyl)-1,3,4-oxadiazol-2-yl)-7-oxo-1,6-diazabicyclo[3.2.1]octan-6-yl hydrogen sulfate] | more active than Avibactam | more active than Avibactam |
| N=C(N)N[C@H]1C[C@@H](c2nnc([C@@H]3CC[C@@H]4CN3C(=O)N4OS(=O)(=O)O)s2)C1 [Compound 784, (2S,5R)-2-(5-((1s,3R)-3-guanidinocyclobutyl)-1,3,4-thiadiazol-2-yl)-7-oxo-1,6-diazabicyclo[3.2.1]octan-6-yl hydrogen sulfate] | more active than Avibactam | more active than Avibactam |
| O=C1N2C[C@@H](CC[C@H]2c2nnc([C@@H]3CCNC3)o2)N1OS(=O)(=O)O [Compound 759, (2S,5R)-7-oxo-2-(5-((R)-pyrrolidin-3-yl)-1,3,4-oxadiazol-2-yl)-1,6-diazabicyclo[3.2.1]octan-6-yl hydrogen sulfate] | more active than Avibactam | more active than Avibactam |
| O=C1N2C[C@@H](CC[C@H]2c2nnc(C3CNC3)o2)N1OS(=O)(=O)O [Compound 708, (2S,5R)-2-(5-(azetidin-3-yl)-1,3,4-oxadiazol-2-yl)-7-oxo-1,6-diazabicyclo[3.2.1]octan-6-yl hydrogen sulfate] | more active than Avibactam | more active than Avibactam |
| N[C@H]1C[C@H](Cc2nnc([C@@H]3CC[C@@H]4CN3C(=O)N4OS(=O)(=O)O)o2)C1 [Compound 751, (2S,5R)-2-(5-(((1r,3S)-3-aminocyclobutyl)methyl)-1,3,4-oxadiazol-2-yl)-7-oxo-1,6-diazabicyclo[3.2.1]octan-6-yl hydrogen sulfate] | more active than Avibactam | more active than Avibactam |
| C[n+]1ccc(-c2nnc([C@@H]3CC[C@@H]4CN3C(=O)N4OS(=O)(=O)[O-])o2)cc1 [Compound 782, (2S,5R)-2-(5-(1-methylpyridin-1-ium-4-yl)-1,3,4-oxadiazol-2-yl)-7-oxo-1,6-diazabicyclo[3.2.1]octan-6-yl sulfate] | more active than Avibactam | more active than Avibactam |
| N[C@H]1C[C@H](c2nnc([C@@H]3CC[C@@H]4CN3C(=O)N4OS(=O)(=O)O)o2)C1 [Compound 727, (2S,5R)-2-(5-((1r,3S)-3-aminocyclobutyl)-1,3,4-oxadiazol-2-yl)-7-oxo-1,6-diazabicyclo[3.2.1]octan-6-yl hydrogen sulfate] | more active than Avibactam | more active than Avibactam |
| O=C1N2C[C@@H](CC[C@H]2c2nnc(C3CCNCC3)o2)N1OS(=O)(=O)O [Compound 711, (2S,5R)-7-oxo-2-(5-(piperidin-4-yl)-1,3,4-oxadiazol-2-yl)-1,6-diazabicyclo[3.2.1]octan-6-yl hydrogen sulfate] | more active than Avibactam | more active than Avibactam |
| O=C1N2C[C@@H](CC[C@H]2c2nnc(CCCCNC3CCNCC3)o2)N1OS(=O)(=O)O [Compound 772, (2S,5R)-7-oxo-2-(5-(4-(piperidin-4-ylamino)butyl)-1,3,4-oxadiazol-2-yl)-1,6-diazabicyclo[3.2.1]octan-6-yl hydrogen sulfate] | more active than Avibactam | more active than Avibactam |
| NC1CC(NCc2nnc([C@@H]3CC[C@@H]4CN3C(=O)N4OS(=O)(=O)O)o2)C1 (stereo partly drawn) [Compound 755, (2S,5R)-2-(5-(((3-aminocyclobutyl)amino)methyl)-1,3,4-oxadiazol-2-yl)-7-oxo-1,6-diazabicyclo[3.2.1]octan-6-yl hydrogen sulfate] | more active than Avibactam | more active than Avibactam |
| O=C1N2C[C@@H](CC[C@H]2c2nnc(COC3CNC3)o2)N1OS(=O)(=O)O [Compound 744, (2S,5R)-2-(5-((azetidin-3-yloxy)methyl)-1,3,4-oxadiazol-2-yl)-7-oxo-1,6-diazabicyclo[3.2.1]octan-6-yl hydrogen sulfate] | more active than Avibactam | more active than Avibactam |
| N[C@H]1C[C@@H](Cc2nnc([C@@H]3CC[C@@H]4CN3C(=O)N4OS(=O)(=O)O)o2)C1 [Compound 728, (2S,5R)-2-(5-(((1s,3R)-3-aminocyclobutyl)methyl)-1,3,4-oxadiazol-2-yl)-7-oxo-1,6-diazabicyclo[3.2.1]octan-6-yl hydrogen sulfate] | more active than Avibactam | more active than Avibactam |
